Experimental data reported in US5808139A (Ligand Pharmaceuticals Incorporated, priority 1994, dated 1998).
Like-named read-outs stand apart in the source and are kept apart here.

Legend:
[1] = system: human progesterone receptor altered at the Tau-1 location; assay: Co-transfection assay in CV-1 cells, progesterone receptor altered at Tau-1, antagonist activity; type: cell-based
In short: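 CV-1 cells co-transfected with RSV-LTR-driven human PR (altered at Tau-1) and a hormone-responsive luciferase reporter; antagonism measured against a fixed agonist concentration. Luciferase in cell extracts read, triplicate points, potency from concentration-response; […].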

[2] = target: T1, human progesterone receptor (Homo sapiens, UniProt P06401); assay: Co-transfection (cis-trans) assay in CV-1 cells, agonist and antagonist mode; type: cell-based; design: expressed in transfected cells; host or cells: CV-1 cells (calcium phosphate transfection), whole cell extract; details: antagonist mode with 10^-8 M progesterone
T1 sequence (P06401 1-933): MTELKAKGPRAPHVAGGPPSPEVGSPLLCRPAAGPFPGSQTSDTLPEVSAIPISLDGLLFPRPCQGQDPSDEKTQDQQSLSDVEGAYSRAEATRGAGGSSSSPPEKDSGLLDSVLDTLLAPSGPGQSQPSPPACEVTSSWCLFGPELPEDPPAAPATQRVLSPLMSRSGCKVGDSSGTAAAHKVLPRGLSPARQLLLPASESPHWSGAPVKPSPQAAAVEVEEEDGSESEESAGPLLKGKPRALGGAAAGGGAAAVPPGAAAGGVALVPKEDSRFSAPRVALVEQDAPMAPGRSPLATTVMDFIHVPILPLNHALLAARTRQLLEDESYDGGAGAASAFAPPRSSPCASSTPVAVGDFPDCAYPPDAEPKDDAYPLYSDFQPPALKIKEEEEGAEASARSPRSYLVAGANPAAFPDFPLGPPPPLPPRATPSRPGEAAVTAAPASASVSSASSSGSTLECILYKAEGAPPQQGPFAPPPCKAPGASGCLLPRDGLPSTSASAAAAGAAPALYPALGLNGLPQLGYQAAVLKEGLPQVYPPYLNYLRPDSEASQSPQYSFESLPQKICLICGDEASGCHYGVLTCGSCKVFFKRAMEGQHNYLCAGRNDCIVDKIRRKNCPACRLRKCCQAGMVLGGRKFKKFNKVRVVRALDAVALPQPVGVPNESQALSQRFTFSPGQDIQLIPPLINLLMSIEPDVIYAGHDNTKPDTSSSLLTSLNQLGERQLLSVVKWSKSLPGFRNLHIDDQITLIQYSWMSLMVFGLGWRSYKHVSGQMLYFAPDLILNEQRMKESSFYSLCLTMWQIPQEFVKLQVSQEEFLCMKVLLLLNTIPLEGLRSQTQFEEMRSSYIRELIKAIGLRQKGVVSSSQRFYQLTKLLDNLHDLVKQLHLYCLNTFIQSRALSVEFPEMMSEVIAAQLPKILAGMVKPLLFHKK
Excerpt: This assay is described in further detail in U.S. Pat. Nos. 4,981,784 and 5,071,773, which are incorporated herein by reference. The co-transfection assay provides a method for identifying functional ligands (either agonists which mimic, or antagonists which inhibit, the effect of hormones) for ligand-responsive receptor proteins.
The co-transfection assay provides a mechanism to evaluate ability of a compound to function as an agonist or antagonist of the activity modulated by an intracellular receptor. The co-transfection assay mimics an in vivo system in the laboratory. In the co-transfection assay, a cloned gene for an intracellular receptor is introduced by transfection (a procedure to induce cells to take up foreign genes) into a background cell substantially devoid of endogenous intracellular receptors. This introduced gene directs the recipient cells to make the intracellular receptor protein. A second gene is also introduced (co-transfected) into the same cells in conjunction with the intracellular receptor gene. This second gene functions as a reporter for the transcription-modulating activity of the target intracellular receptor. The reporter acts as a surrogate for the products normally expressed by a gene under control of the target receptor and its natural hormone.
A preferred reporter gene is one which expresses the firefly enzyme luciferase. The co-transfection assay can detect small molecule agonists or antagonists of target intracellular receptors. Exposing the cells to an agonist ligand increases reporter activity in the transfected cells that can be conveniently measured, reflecting ligand-dependent, intracellular receptor-mediated increases in reporter transcription. To detect antagonists, the co-transfection assay is carried out in the presence of a constant concentration of an agonist known to induce a defined reporter signal. Increasing concentrations of a test antagonist will decrease the reporter signal. The co-transfection assay is therefore useful to detect both agonists and antagonists of specific intracellular receptors. It determines not only whether a compound interacts with a particular intracellular receptor, but also whether this interaction mimics (agonizes) or blocks (antagonizes) the effects of the natural regulatory molecules on target gene expression.
Co-transfected cells are exposed to a medium to which is added the potential ligand that is being evaluated. If the candidate ligand diffuses into the cell and binds to the receptor and the resulting complex functions as an agonist, it binds to the co-transfected reporter gene and initiates transcription. When that gene is one that expresses, for example, luciferase, luciferase is produced which catalyzes a light-emitting reaction with its substrate luciferin. Thus, after cell lysis and the introduction of luciferin, the amount of light produced relative to the concentration of candidate ligand used in the assay provides a measure of the potency and efficacy of the compound tested. Antagonist activity is evaluated by adding the candidate ligand and a known agonist to the co-transfected cells.
The receptor cDNA was introduced in a mammalian expression vector under the control of the Rous Sarcoma virus LTR. […] A reporter vector was also transfected, containing a firefly luciferase gene under the control of the hormone-responsive promoter. […] The level of luciferase activity was then measured in cell extracts. Light emission is directly proportional to the effectiveness of the hormone-receptor complex in activating gene expression.
A total of three replicates per concentration point were tested for each compound, and the EC50 was calculated for each positive response. Both agonist and antagonist activity for each test compound was determined in parallel.

[3] = target: T1, human progesterone receptor; assay: Progesterone receptor binding (displacement of 3H-progesterone, whole cell extract of transfected CV-1 cells); design: expressed in transfected cells; host or cells: CV-1 cells (calcium phosphate transfection), whole cell extract; details: for Displacement of 3H-progesterone from its ligand binding site: 5 nM tritiated progesterone, 0-2.5×10^-5 M compound, 4° C., 24 hours
[4] = target: T1, human progesterone receptor; assay: Displacement of 3H-R5020 from progesterone receptor; details: FIG. 7c

Row | SMILES | Efficacy (% maximal response relative to RU-486), CV-1 cells ([1]; antagonist activity, relative to RU-486) [%] | IC50 ([1]; concentration required to reduce the maximal response by 50%, read-out: Potency (IC50), CV-1 cells) [nM] | Progesterone receptor agonist/antagonist activity [2] | Progesterone receptor agonist/antagonist activity ([2]; listed as 3R diastereomer of cyclocymopol monomethyl ether) | Progesterone receptor agonist/antagonist activity ([2]; listed as SO-9) | Kd [3] [nM] | Displacement of 3H-progesterone from its ligand binding site [3] | Apparent Bmax of 3H-progesterone ([3]; in the presence of compound, FIG. 8) | Competition with 3H-R5020 [4] | IC50 ([1]; read-out: Potency (IC50), CV-1 cells, concentration required to reduce the maximal response by 50%) [nM]
1 | C=C1CC[C@@H](Br)C(C)(C)[C@@H]1Cc1cc(OC)c(Br)cc1O [SO-53, (3R)-cyclocymopol monomethyl ether] | 85 | 965 | progesterone receptor antagonist activity | progesterone receptor antagonist activity | progesterone receptor antagonist activity | 450 | displaced ^3 H-progesterone from its ligand binding site in a concentration-dependent manner | significantly increased the apparent Bmax | did not compete for this binding site | –
2 | C=C1CC[C@@H](Br)C(C)(C)[C@@H]1Cc1cc(OC)c(Br)cc1OC(C)=O [SO-52] | – | – | progesterone receptor antagonist activity | – | – | – | displaced ^3 H-progesterone from its ligand binding site in a concentration-dependent manner | – | – | –
3 | CC#C[C@]1(O)CC[C@H]2[C@@H]3CCC4=CC(=O)CCC4=C3[C@@H](c3ccc(N(C)C)cc3)C[C@@]21C [RU-486, reference compound] | – | – | – | – | – | – | – | – | competitive antagonist of R5020 | 0.1
